Assay: In vitro metabolic stability in mouse liver microsomes
Type: in vitro ADME
Details: MLM
Method: Metabolic stability was assessed using mouse, rat, and human liver microsomes (XenoTech, LLC, Lenexa, KS, USA) for phase I metabolism. Briefly, A reaction solution was prepared by mixing […] of PBS (100 mM, pH 7.4), 25 µL of microsomal protein (20 mg/mL), MgCl2 (5 µL; 10 mM), and 50 µL of NADPH (2 mM). The final volume (0.5 mL) was pre-incubated for 10 min in a 37 °C water bath at 60 rpm. An aliquot of MO-OH-Nap (2 µL from 1 µg/mL stock) was spiked into the above solution to initiate the reaction. Aliquots of (50 µL) were collected at time intervals (0, 5, 15, 20, 30, 45, and 60 min) and quenched with 300 µL of ACN, […]. Afterwards, 10 µL of IS stock (1.0 µg/mL) was spiked in each sample then vortexed (5 min) and centrifuged at 10,800 rpm (13,000× g) for 15 min. Samples were vortexed and centrifuged at 10,800 rpm (13,000× g) for 15 min, the supernatant was collected and transferred to an HPLC vial and 10 µL were injected into the LC-MS/MS system. Testosterone and diclofenac were used as positive and negative controls to ensure that liver microsomes and incubation conditions were appropriate for conducting metabolism studies.

O=c1c(O)ccccc1-c1ccc2ccccc2c1 [MO-OH-Nap, MO-OH-Nap tropolone]
metabolic depletion (NADPH, 60 min): < 15% | parent drug remaining (all time points to 60 min): > 95%
